In article PMC2749862, “Glucocorticoids with different chemical structures but similar glucocorticoid receptor potency regulate subsets of common and unique genes in human trabecular meshwork cells” (BMC Medical Genomics, 2009):

Experiments:
[1] = system: TM 86 cells; experiment: Microarray gene expression profiling in TM 86 cells (with IPA and GoMiner analysis); assay type: cell-based, human; settings: 1 μM, 24 hr
Excerpt: (§1) Cells were maintained in low glucose Dulbecco's Modified Eagle Medium (DMEM, Invitrogen, Carlsbad, CA) supplemented with 10% (vol/vol) FBS (American Type Culture Collection, Manassas, VA), 1% (vol/vol) penicillin and streptomycin (Invitrogen). Cells from the human HeLa cervical adenocarcinoma cell line (American Type Culture Collection) were maintained in α-MEM medium supplemented with 10% (v/v) FBS, 1% (v/v) penicillin and streptomycin. All cells were used within passages 3 to 6. […] Cells were maintained for one week with medium renewal every other day. The day before the experiment, confluent TM were washed once with phosphate-buffered saline (PBS) and then the cells were maintained in 1% FBS-containing medium with antibiotics. […] Control cells were treated with 0.1%(v/v) dimethylsulfoxide (DMSO). At the end of GC treatment, supernatant was discarded and the cell monolayer was kept frozen at -80°C for subsequent total RNA extraction and gene expression profiling. […] Briefly, RNA was isolated from flash frozen cell culture plates using RNeasy Mini columns (Qiagen, Valencia, CA) according to the manufacturer's protocol. There were three biological replicates per treatment condition. The quantity and purity of the extracted RNA was evaluated using a NanoDrop ND-1000 spectrophotometer (Nanodrop Technologies, Wilmington, DE, USA) and its integrity measured using an Agilent Bioanalyzer. […] The amount and quality of the fluorescently labeled cRNA was assessed using a NanoDrop ND-1000 spectrophotometer and an Agilent Bioanalyzer. An equal amount of Cy3-labeled cRNA (1.6 μg) was hybridized to the Agilent Human Whole Genome Oligo Microarray (Agilent Technologies) for 17 hours, prior to washing and scanning. Data were extracted from scanned images using Agilent's Feature Extraction Software (Agilent Technologies) using default settings. […] The full complement of microarray data has been deposited in the NIH/NLM Gene Expression Omnibus (GEO accession # GSE16643). […] The lists of differentially expressed genes were also applied to global functional, network and canonical pathway analyses using Ingenuity Pathway Analysis (Ingenuity® Systems, Redwood City, CA).

[2] = human, following local administration; cited from earlier work
[3] = target: T1, glucocorticoid receptor (Homo sapiens, UniProt P04150); experiment: GeneBLAzer beta-lactamase reporter gene assay, GR transactivation in MMTV-bla HeLa CellSensor cells; assay type: cell-based; settings: 5 hr treatment
T1 sequence (P04150 524-777 limits assumed): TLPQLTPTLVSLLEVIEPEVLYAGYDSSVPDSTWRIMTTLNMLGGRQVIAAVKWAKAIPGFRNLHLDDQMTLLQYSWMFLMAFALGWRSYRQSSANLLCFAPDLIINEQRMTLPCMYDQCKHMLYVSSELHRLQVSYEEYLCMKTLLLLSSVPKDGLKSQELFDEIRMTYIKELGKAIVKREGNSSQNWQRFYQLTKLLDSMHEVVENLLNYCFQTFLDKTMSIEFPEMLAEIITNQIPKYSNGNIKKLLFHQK
Experimental: GR transactivation activity was assessed by the Invitrogen SelectScreen Profiling Service (Madison, WI), using Invitrogen GeneBLAzer beta-lactamase reporter gene technology. Profiling was performed using human HeLa cells stably transfected with an expression construct containing β-lactamase cDNA under the control of the MMTV response element previously identified as a GR response element (MMTV-bla HeLa CellSensor®). The MMTV-bla HeLa cells were plated in 384-well plates in 32 μl assay medium (OPTIMEM + 1% charcoal/dextran stripped FBS) at a density of 10,000 cells/well and incubated overnight. […] The β-lactamase activity of each sample was determined by adding 8 μl of 6-fold concentrated LiveBLAzer™ substrate solution to the samples followed by two hours of incubation at room temperature in a Tecan Safire2 plate reader using the appropriate LiveBLAzer™ filter settings. GC treatment was performed in 15-point dose response using a three-fold dilution series starting with a maximum compound concentration of 10 μM. Each data point represents a triplicate sample (n = 3). Assay reproducibility was determined by calculating Z' values for untreated vs. maximum stimulation. The GeneBLAzer assay was performed twice.

[4] = target: T1, glucocorticoid receptor; experiment: GR radiolabeled competitive binding assay (IM-9 cell cytosol, [3H]dexamethasone; Cerep)
Experimental: GR binding affinity assay was performed at Cerep Inc. (Celle l'Evescault, France), according to an established method. […] Nonspecific binding is determined in the presence of 10 μM triamcinolone. Following incubation, the samples are filtered rapidly under vacuum through glass fiber filters (GF/B, Packard) presoaked with 0.3% Poly(ethyleneimine) and rinsed several times with ice-cold 50 mM Tris-HCl using a 96-sample cell harvester (Unifilter, Packard). The filters are dried and counted for radioactivity in a scintillation counter (Topcount, Packard) using a scintillation cocktail (Microscint 0, Packard). The results are expressed as percent inhibition of the control radioligand specific binding. The IC50 values (concentration causing half-maximal inhibition of control specific binding) and Hill coefficients (nH) were determined by non-linear regression analysis of the competition curves generated with mean replicate values using Hill equation curve fitting (Y = D + [(A - D)/(1 + (C/C50)^nH)], where Y = specific binding, D = minimum specific binding, A = maximum specific binding, C = compound concentration, C50 = IC50, and nH = slope factor). […] The inhibition constants (Ki) were calculated using the Cheng Prusoff equation (Ki = IC50/(1+(L/KD)), where L = concentration of radioligand in the assay, and KD = affinity of the radioligand for the receptor). […] The GR binding assay was performed in duplicate.

[5] = system: TM 93 cells; experiment: Microarray gene expression profiling in TM 93 cells (with IPA and GoMiner analysis); assay type: cell-based, human; settings: 1 μM, 24 hr
Excerpt: as §1

**Q.** With `CC1(C)O[C@@H]2C[C@H]3[C@@H]4CCC5=CC(=O)C=C[C@]5(C)[C@@]4(F)[C@@H](O)C[C@]3(C)[C@]2(C(=O)CO)O1` [TA, triamcinolone acetonide] as the molecule, how does the “function of significantly regulated transcripts (Ingenuity Pathway Analysis)” value [1] read?
**A.** Its value is “cell morphology”.

**Q.** And the “number of genes uniquely regulated by each GC” value [1]?
**A.** Its value is 388.

**Q.** What about the “significantly regulated biological process (GoMiner gene ontology)” value [1] of the same molecule?
**A.** Its value is “mitotic cell cycle”.

**Q.** What about the “ANGPTL4 FC (fold change)” value ([1]; microarray) of the same molecule?
**A.** The value was 7.9 fold.

**Q.** And the “ANGPTL7 FC (fold change)” value ([1]; microarray)?
**A.** The value was 26.5 fold.

**Q.** And the “AQP1 FC (fold change)” value ([1]; microarray)?
**A.** Its value is -5.1 fold.

**Q.** What about the “CCRL1 FC (fold change)” value ([1]; microarray) of the same molecule?
**A.** The value was -3.4 fold.

**Q.** What about the “CXADR FC (fold change)” value ([1]; microarray) of the same molecule?
**A.** The value was -4.8 fold.

**Q.** What about the “ENST00000344214 FC (fold change)” value ([1]; microarray) of the same molecule?
**A.** Its value is -3.1 fold.

**Q.** And the “FKBP5 FC (fold change)” value ([1]; microarray)?
**A.** The value was 12.5 fold.

**Q.** And the “GABRB1 FC (fold change)” value ([1]; microarray)?
**A.** Its value is -4.9 fold.

**Q.** What about the “ITGA10 FC (fold change)” value ([1]; microarray) of the same molecule?
**A.** Its value is 17.7 fold.

**Q.** And the “KAL1 FC (fold change)” value ([1]; microarray)?
**A.** Its value is -6.7 fold.

**Q.** And the “KCNB1 FC (fold change)” value ([1]; microarray)?
**A.** Its value is 19.9 fold.

**Q.** And the “KIF4A FC (fold change)” value ([1]; microarray)?
**A.** The value was -4.1 fold.

**Q.** And the “KLF15 FC (fold change)” value ([1]; microarray)?
**A.** Its value is 11.1 fold.

**Q.** And the “LSP1 FC (fold change)” value ([1]; microarray)?
**A.** The value was 15.4 fold.

**Q.** And the “MXRA5 FC (fold change)” value ([1]; microarray)?
**A.** Its value is -5.4 fold.

**Q.** What about the “MYOC FC (fold change)” value ([1]; microarray) of the same molecule?
**A.** Its value is 6.7 fold.

**Q.** What about the “PCDH19 FC (fold change)” value ([1]; microarray) of the same molecule?
**A.** Its value is -5.0 fold.

**Q.** What about the “PER3 FC (fold change)” value ([1]; microarray) of the same molecule?
**A.** The value was -7.0 fold.

**Q.** And the “RASL11B FC (fold change)” value ([1]; microarray)?
**A.** The value was -4.0 fold.

**Q.** What about the “RGC32 FC (fold change)” value ([1]; microarray) of the same molecule?
**A.** Its value is >100 fold.

**Q.** And the “SAA1 FC (fold change)” value ([1]; microarray)?
**A.** Its value is 35.3 fold.

**Q.** And the “ZBTB16 FC (fold change)” value ([1]; microarray)?
**A.** Its value is 8.1 fold.

**Q.** What about the ocular tissue concentrations [2] of the same molecule?
**A.** Its ocular tissue concentrations is > 1 µM.

**Q.** And the EC50 [3]?
**A.** The EC50 was 1.29 ± 0.28 nM.

**Q.** And the “nH (Hill coefficient)” value ([4]; IM-9 cell cytosol competition curves)?
**A.** Its value is 1.05 ± 0.07.

**Q.** What about the Ki ([4]; IM-9 cell cytosol, calculated by Cheng Prusoff equation) of the same molecule?
**A.** The Ki was 0.72 ± 0.24 nM.

**Q.** What about the IC50 ([4]; read-out: GR binding affinity IC50) of the same molecule?
**A.** Its IC50 is 1.45 ± 0.5 nM.

**Q.** What about the “function of significantly regulated genes (Ingenuity Pathway Analysis)” value [5] of the same molecule?
**A.** The value was “cell adhesion”.

**Q.** And the “number of genes uniquely regulated by each GC” value [5]?
**A.** The value was 555.

**Q.** And the “significantly regulated biological process (GoMiner gene ontology)” value [5]?
**A.** The value was “smooth muscle cell proliferation”.

**Q.** What about the “ANGPTL4 FC (fold change)” value ([5]; microarray) of the same molecule?
**A.** The value was 5.3 fold.

**Q.** What about the “ANGPTL7 FC (fold change)” value ([5]; microarray) of the same molecule?
**A.** The value was 20.5 fold.

**Q.** What about the “AQP1 FC (fold change)” value ([5]; microarray) of the same molecule?
**A.** The value was -2.8 fold.

**Q.** What about the “CCRL1 FC (fold change)” value ([5]; microarray) of the same molecule?
**A.** Its value is -2.1 fold.

**Q.** And the “CXADR FC (fold change)” value ([5]; microarray)?
**A.** Its value is -2.6 fold.

**Q.** And the “FKBP5 FC (fold change)” value ([5]; microarray)?
**A.** The value was 5.8 fold.

**Q.** What about the “GABRB1 FC (fold change)” value ([5]; microarray) of the same molecule?
**A.** Its value is -2.6 fold.

**Q.** What about the “ITGA10 FC (fold change)” value ([5]; microarray) of the same molecule?
**A.** Its value is 5.6 fold.

**Q.** And the “KAL1 FC (fold change)” value ([5]; microarray)?
**A.** The value was -3.3 fold.

**Q.** What about the “KCNB1 FC (fold change)” value ([5]; microarray) of the same molecule?
**A.** Its value is 11.3 fold.

**Q.** What about the “KIF4A FC (fold change)” value ([5]; microarray) of the same molecule?
**A.** The value was -2.3 fold.

**Q.** What about the “KLF15 FC (fold change)” value ([5]; microarray) of the same molecule?
**A.** The value was 3.9 fold.

**Q.** And the “MXRA5 FC (fold change)” value ([5]; microarray)?
**A.** Its value is -4.5 fold.

**Q.** And the “MYOC FC (fold change)” value ([5]; microarray)?
**A.** Its value is 2.6 fold.

**Q.** And the “OCA2 FC (fold change)” value ([5]; microarray)?
**A.** The value was >100 fold.

**Q.** What about the “PCDH19 FC (fold change)” value ([5]; microarray) of the same molecule?
**A.** The value was -3.3 fold.

**Q.** What about the “PER3 FC (fold change)” value ([5]; microarray) of the same molecule?
**A.** The value was -3.8 fold.

**Q.** What about the “PF4 FC (fold change)” value ([5]; microarray) of the same molecule?
**A.** The value was 4.4 fold.

**Q.** And the “RGC32 FC (fold change)” value ([5]; microarray)?
**A.** Its value is 19.9 fold.

**Q.** What about the “SAA1 FC (fold change)” value ([5]; microarray) of the same molecule?
**A.** Its value is 11.9 fold.

**Q.** What about the “ZBTB16 FC (fold change)” value ([5]; microarray) of the same molecule?
**A.** The value was 5.5 fold.
